In patent publication US5068233A, “Synergistic combination of azelastine and theophylline or azelastine and α-mimetics” (Asta Pharma Aktiengesellschaft, priority 1987, dated 1991):
Structures can show the parent of a compound that is named as a salt.

Tested on: isolated guinea pig ileum (histamine spasm)
Assay: histamine spasm test in isolated guinea pig ileum (Magnus), % inhibition of histamine spasm
Design: antihistaminic activity (mean value), starting value / increase of antihistaminic activity (mean value): concentration or dose not given beside the values
Description: These trials were conducted in association with the histamine spasm test in isolated guinea pig ileum. Here, for example, the azelastine dosage (hydrochloride) is maintained constant and the dosage of theophylline or β-mimetic (for example reproterol) is changed and in each case intestinal spasm inhibition is determined as a % of uninhibited histamine spasm (Method of determining synergism according to Magnus).
Guinea pigs of both sexes having a mean weight of 400-600 g are stunned by a blow on the neck and exsanguinated. The lower part of the small intestine above the bottom 10 cm before the transition to the large intestine is dissected, flushed with cold Tyrode's solution and incubated in a refrigerator for 1 hour. 3-4 cm long sections are then cut and suspended in the immersion baths (Tyrode's solution^1) 37° C., carbogen gassing^2) under isotonic conditions, a tension of 2 g being applied. Following an adjustment time of 30 minutes the contraction in response to a standard spasmogen concentration of histamine (2×10^-7 mol/liter) is determined. […] The effects of the individual components and their combination are compared with one another.
1 Tyrode's solution: standardized, glucose-containing nutrient solution that has the same osmotic pressure as blood
2 Carbogen: gaseous mixture of 95% oxygen and 5% carbon dioxide.

## CN1CCCC(n2nc(Cc3ccc(Cl)cc3)c3ccccc3c2=O)CC1 (centres unmarked) [Azelastine.HCl]
Table 1, Azelastine.HCl 0.001 μg/ml alone, group ****, N = 8
  % inhibition (histamine 2 × 10^-10 mol/ml): 46.3 ± 34.6%
Table 1, Azelastine.HCl 0.001 μg/ml alone, group ***, N = 8
  % inhibition (histamine 2 × 10^-10 mol/ml): 9.4 ± 12.4%
Table 1, Azelastine.HCl 0.001 μg/ml alone, group **, N = 4
  % inhibition (histamine 2 × 10^-10 mol/ml): 49.3 ± 1.9%
Table 1, Azelastine.HCl 0.001 μg/ml alone, group *, N = 8
  % inhibition (histamine 2 × 10^-10 mol/ml): 38.9 ± 19.9%
Table 2, Azelastine.HCl 0.001 μg/ml alone, group ***, N = 8
  % inhibition (histamine 2 × 10^-10 mol/ml): 45.9 ± 21.1%
Table 2, Azelastine.HCl 0.001 μg/ml alone, group **, N = 8
  % inhibition (histamine 2 × 10^-10 mol/ml): 26.6 ± 15.1%
Table 2, Azelastine.HCl 0.001 μg/ml alone, group *, N = 8
  % inhibition (histamine 2 × 10^-10 mol/ml): 35.1 ± 25.7%

## Cn1c(=O)c2c(ncn2CCCNCC(O)c2cc(O)cc(O)c2)n(C)c1=O (centres unmarked) [Reproterol.HCl]
Table 2, Reproterol.HCl 0.02 μg/ml alone, group *, N = 8
  % inhibition (histamine 2 × 10^-10 mol/ml): 14.5 ± 16.6%
Table 2, Reproterol.HCl 0.04 μg/ml alone, group **, N = 8
  % inhibition (histamine 2 × 10^-10 mol/ml): 14.5 ± 18.1%
Table 2, Reproterol.HCl 0.06 μg/ml alone, group ***, N = 8
  % inhibition (histamine 2 × 10^-10 mol/ml): 48.5 ± 21.3%

## Cn1c(=O)c2[nH]cnc2n(C)c1=O [Theophylline]
Table 1, Theophylline 10 μg/ml alone, group *, N = 8
  % inhibition (histamine 2 × 10^-10 mol/ml): 9.0 ± 12.8%
Table 1, Theophylline 20 μg/ml alone, group **, N = 4
  % inhibition (histamine 2 × 10^-10 mol/ml): 25.0 ± 15.1%
Table 1, Theophylline 40 μg/ml alone, group ***, N = 8
  % inhibition (histamine 2 × 10^-10 mol/ml): 39.6 ± 26.9%
Table 1, Theophylline 60 μg/ml alone, group ****, N = 8
  % inhibition (histamine 2 × 10^-10 mol/ml): 20.6 ± 15.5%
theophylline, mean value before addition of azelastine
  antihistaminic activity (mean value), starting value: 24%
theophylline, upon addition of azelastine
  increase of antihistaminic activity (mean value): 38%

## CN1CCCC(n2nc(Cc3ccc(Cl)cc3)c3ccccc3c2=O)CC1 (centres unmarked) [azelastine]
Azelastine activity increased in the combination, partner not given
  increase of antihistaminic activity (mean value): 26%
azelastine, mean value before increase
  antihistaminic activity (mean value), starting value: 36%

## Cn1c(=O)c2c(ncn2CCCNCC(O)c2cc(O)cc(O)c2)n(C)c1=O (stereo not drawn) [reproterol, 7-{3[(β,3,5-trihydroxyphenethyl)-amino]propyl}-theophylline]
reproterol, mean value before addition of azelastine
  antihistaminic activity (mean value), starting value: 26%
reproterol, on addition of azelastine
  increase of antihistaminic activity (mean value): 38%
